Experimental data taken from patent US10106534B2 (CELGENE QUANTICEL RESEARCH, INC., priority 2014, dated 2018).

Molecular target: JMJD2C (Homo sapiens (Human), UniProt Q9H3R0)
Test: In vitro enzyme inhibition assay for JMJD2C activity (TR-FRET)
Format: biochemical
Conditions: not given
Experimental: This assay determines the ability of a test compound to inhibit JMJD2C demethylase activity. Baculovirus expressed JMJD2C (GenBank Accession #BC143571, AA 2-372) was purchased from BPS Bioscience (Cat#50105).
The ability of test compounds to inhibit the activity of JMJD2C was determined in 384-well plate format under the following reaction conditions: 0.3 nM JMJD2C, 300 nM H3K9me3-biotin labeled peptide (Anaspec cat #64360), 2 μM alpha-ketoglutaric acid in assay buffer of 50 mM HEPES, pH7.3, 0.005% Brij35, 0.5 mM TCEP, 0.2 mg/ml BSA, 50 μM sodium L-ascorbate, and 2 μM ammonium iron(II) sulfate. Reaction product was determined quantitatively by TR-FRET after the addition of detection reagent Phycolink Streptavidin-allophycocyanin (Prozyme) and Europium-anti-di-methylated histone H3 lysine 9 (H3K9me2) antibody (PerkinElmer) in the presence of 5 mM EDTA in LANCE detection buffer (PerkinElmer) at a final concentration of 50 nM and 1 nM, respectively.
The assay reaction was initiated by the following: 2 μl of the mixture of 900 nM H3K9me3-biotin labeled peptide and 6 μM alpha-ketoglutaric acid with 2 μl of 11-point serial diluted inhibitor in 3% DMSO were added to each well of the plate, followed by the addition of 2 μl of 0.9 nM JMJD2C to initiate the reaction. The reaction mixture was incubated at room temperature for 30 minutes, and terminated by the addition of 6 μl of 5 mM EDTA in LANCE detection buffer containing 100 nM Phycolink Streptavidin-allophycocyanin and 2 nM Europium-anti-H3K9me2 antibody. Plates were read by EnVisionMultilabel Reader in TR-FRET mode (excitation at 320 nm, emission at 615 nm and 665 nm) after 1 hour incubation at room temperature. A ratio was calculated (665/615) for each well and fitted to determine inhibition constant (IC50).

Sequence of JMJD2C (Q9H3R0 2-372): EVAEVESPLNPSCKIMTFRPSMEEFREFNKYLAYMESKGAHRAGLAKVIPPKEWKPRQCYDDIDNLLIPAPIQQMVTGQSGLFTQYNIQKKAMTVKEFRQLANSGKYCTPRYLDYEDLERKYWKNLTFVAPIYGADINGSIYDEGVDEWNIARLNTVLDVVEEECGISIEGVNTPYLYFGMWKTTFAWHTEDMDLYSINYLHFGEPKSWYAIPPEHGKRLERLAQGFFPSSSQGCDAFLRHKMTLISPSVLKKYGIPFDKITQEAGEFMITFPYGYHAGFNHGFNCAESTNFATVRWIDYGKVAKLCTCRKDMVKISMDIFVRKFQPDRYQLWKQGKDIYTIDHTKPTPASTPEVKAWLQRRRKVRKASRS

| Compound | IC50 |
| --- | --- |
| 3-({[(1R)-6-[methyl(2-methyl-1,3-thiazol-4-yl)amino]-1,2,3,4-tetrahydronaphthalen-1-yl]methyl}amino)pyridine-4-carboxylic acid [Example 139] | 100 to 1000 nM |
| CCc1ccc2c(c1)CCC[C@@H]2CNc1cnccc1C(=O)O [Example 90, 3-({[(1S)-6-ethyl-1,2,3,4-tetrahydronaphthalen-1-yl]methyl}amino)pyridine-4-carboxylic acid] | 100 to 1000 nM |
| COc1ccc(Cl)c(-c2ccc3c(c2)OCC[C@H]3CNc2cnccc2C(=O)O)c1 [Example 107, 3-({[(4R)-7-(2-chloro-5-methoxyphenyl)-3,4-dihydro-2H-1-benzopyran-4-yl]methyl}amino)pyridine-4-carboxylic acid] | 100 to 1000 nM |
| CN(c1ccc2c(c1)CCC[C@H]2CNc1cnccc1C(=O)O)C1CCOCC1 [Example 113, 3-({[(1R)-6-[methyl(oxan-4-yl)amino]-1,2,3,4-tetrahydronaphthalen-1-yl]methyl}amino)pyridine-4-carboxylic acid] | 100 to 1000 nM |
| O=C(O)c1ccncc1NCC1CCOc2cc(N(CC(F)(F)F)c3ccccc3)ccc21 (centres unmarked) [Example 129, 3-[({7-[phenyl(2,2,2-trifluoroethyl)amino]-3,4-dihydro-2H-1-benzopyran-4-yl}methyl)amino]pyridine-4-carboxylic acid] | 1000 to 10000 nM |
| Cc1cccc(N(C)c2ccc3c(c2)CCC[C@H]3CNc2cnccc2C(=O)O)c1 [Example 143, 3-({[(1R)-6-[methyl(3-methylphenyl)amino]-1,2,3,4-tetrahydronaphthalen-1-yl]methyl}amino)pyridine-4-carboxylic acid] | 1000 to 10000 nM |
| O=C(O)c1ccncc1NCC1NCCc2ccccc21 (centres unmarked) [Example 149, 3-[(1,2,3,4-tetrahydroisoquinolin-1-ylmethyl)amino]pyridine-4-carboxylic acid] | 100 to 1000 nM |
| O=C(O)c1ccncc1NC[C@@H]1CCCc2cc(N3CCCCc4ccccc43)ccc21 [Example 162, 3-({[(1R)-6-(2,3,4,5-tetrahydro-1H-1-benzazepin-1-yl)-1,2,3,4-tetrahydronaphthalen-1-yl]methyl}amino)pyridine-4-carboxylic acid] | 1000 to 10000 nM |
| CN(c1ccc(OC(F)(F)F)cc1)c1ccc2c(c1)CCC[C@H]2CNc1cnccc1C(=O)O [Example 181, 3-({[(1R)-6-{methyl[4-(trifluoromethoxy)phenyl]amino}-1,2,3,4-tetrahydronaphthalen-1-yl]methyl}amino)pyridine-4-carboxylic acid] | 100 to 1000 nM |
| CN(c1ccc(N2CC(F)(F)C2)cc1)c1ccc2c(c1)CCC[C@H]2CNc1cnccc1C(=O)O [Example 195, 3-({[(1R)-6-{[4-(3,3-difluoroazetidin-1-yl)phenyl](methyl)amino}-1,2,3,4-tetrahydronaphthalen-1-yl]methyl}amino)pyridine-4-carboxylic acid] | 100 to 1000 nM |
| CN(c1ccc(CC2CC2)cc1)c1ccc2c(c1)OCC[C@H]2CNc1cnccc1C(=O)O [Example 215, 3-({[(4R)-7-{[4-(cyclopropylmethyl)phenyl](methyl)amino}-3,4-dihydro-2H-1-benzopyran-4-yl]methyl}amino)pyridine-4-carboxylic acid] | 100 to 1000 nM |

Other lines, results leading:

| IC50 | Compound |
| --- | --- |
| 100 to 1000 nM | 3-({[(1R)-6-[cyclopentyl(methyl)amino]-1,2,3,4-tetrahydronaphthalen-1-yl]methyl}amino)pyridine-4-carboxylic acid [Example 133] |
| 100 to 1000 nM | Cc1ccc(S(=O)(=O)c2ccc3c(c2)CCC[C@@H]3CNc2cnccc2C(=O)O)cc1 [Example 83, 3-({[(1S)-6-(4-methylbenzenesulfonyl)-1,2,3,4-tetrahydronaphthalen-1-yl]methyl}amino)pyridine-4-carboxylic acid] |
| 1000 to 10000 nM | Cc1cccc(S(=O)(=O)c2ccc3c(c2)CCC[C@@H]3CNc2cnccc2C(=O)O)c1 [Example 85, 3-({[(1S)-6-(3-methylbenzenesulfonyl)-1,2,3,4-tetrahydronaphthalen-1-yl]methyl}amino)pyridine-4-carboxylic acid] |
| 100 to 1000 nM | O=C(O)c1ccncc1NCC1CCCc2cc(S(=O)(=O)c3cccc(F)c3)ccc21 (centres unmarked) [Example 87, 3-({[6-(3-fluorobenzenesulfonyl)-1,2,3,4-tetrahydronaphthalen-1-yl]methyl}amino)pyridine-4-carboxylic acid] |
| 100 to 1000 nM | COc1cc2c(cc1F)[C@@H](CNc1cnccc1C(=O)O)CCC2 [Example 96, 3-({[(1S)-7-fluoro-6-methoxy-1,2,3,4-tetrahydronaphthalen-1-yl]methyl}amino)pyridine-4-carboxylic acid] |
| 100 to 1000 nM | COc1ccc2c(c1C)CCC[C@@H]2CNc1cnccc1C(=O)O [Example 98, 3-({[(1S)-6-methoxy-5-methyl-1,2,3,4-tetrahydronaphthalen-1-yl]methyl}amino)pyridine-4-carboxylic acid] |
| 1000 to 10000 nM | Cc1ccccc1-c1ccc2c(c1)OCC[C@@H]2CNc1cnccc1C(=O)O [Example 100, 3-({[(4S)-7-(2-methylphenyl)-3,4-dihydro-2H-1-benzopyran-4-yl]methyl}amino)pyridine-4-carboxylic acid] |
| 1000 to 10000 nM | O=C(O)c1ccncc1NC[C@@H]1CCCc2cc(N3CCOc4ccccc43)ccc21 [Example 108, 3-({[(1R)-6-(3,4-dihydro-2H-1,4-benzoxazin-4-yl)-1,2,3,4-tetrahydronaphthalen-1-yl]methyl}amino)pyridine-4-carboxylic acid] |
| 100 to 1000 nM | COc1cc(F)ccc1-c1ccc2c(c1)OCC[C@H]2CNc1cnccc1C(=O)O [Example 118, 3-({[(4R)-7-(4-fluoro-2-methoxyphenyl)-3,4-dihydro-2H-1-benzopyran-4-yl]methyl}amino)pyridine-4-carboxylic acid] |
| 1000 to 10000 nM | CN(c1ccc(C(F)(F)F)cc1)c1ccc2c(c1)OCC[C@H]2CNc1cnccc1C(=O)O [Example 128, 3-({[(4R)-7-{methyl[4-(trifluoromethyl)phenyl]amino}-3,4-dihydro-2H-1-benzopyran-4-yl]methyl}amino)pyridine-4-carboxylic acid] |
| 1000 to 10000 nM | CN(c1ccc2c(c1)CCC[C@H]2CNc1cnccc1C(=O)O)c1ccc2occc2c1 [Example 137, 3-({[(1R)-6-[(1-benzofuran-5-yl)(methyl)amino]-1,2,3,4-tetrahydronaphthalen-1-yl]methyl}amino)pyridine-4-carboxylic acid] |
| 100 to 1000 nM | CN(c1ccc(C(=O)C2CC2)cc1)c1ccc2c(c1)OCC[C@H]2CNc1cnccc1C(=O)O [Example 216, 3-({[(4R)-7-[(4-cyclopropanecarbonylphenyl)(methyl)amino]-3,4-dihydro-2H-1-benzopyran-4-yl]methyl}amino)pyridine-4-carboxylic acid] |

Same assay, conditions: R-enantiomer vs S-enantiomer

| fold more potent for JMJD2C than the S-enantiomer | Compound |
| --- | --- |
| about 6 fold | O=C(O)c1ccncc1NC[C@@H]1CCOc2cc(-c3ccccc3)ccc21 [Example 84 of U.S. Pat. No. 8,952,151, 3-({[(4R)-7-phenyl-3,4-dihydro-2H-1-benzopyran-4-yl]methyl}amino)pyridine-4-carboxylic acid, reference compound] |

Test system: KYSE-150 esophageal carcinoma cell line
Test: In vitro cell-based assay: cellular proliferation via BrdU incorporation (ELISA)
Design: species or system human
Conditions: Homo sapiens, KYSE-150, 168 hours compound incubation
Experimental: The primary cellular assay for JMJD2C inhibition is an assay which measures cellular proliferation via Bromodeoxyuridine (BrdU) incorporation after 168 hours of compound incubation. Cell lines tested include the JMJD2C gene amplified cell line KYSE-150. This is a quantitative ELISA assay measuring DNA incorporation of BrdU during S-phase as a direct readout of cellular proliferation.
Assay Principle: This is a colorimetric immunoassay for the quantification of cell proliferation. Cells treated for 168 hours with test compounds are assayed for their ability to go through S-phase as a measure of their proliferative potential.
Assay Method: The human KYSE-150 (SMAD4 mut, TP53 mut) esophageal carcinoma cell line was seeded at 2,000 cells/well on a 96-well tissue culture treated plate. After an overnight incubation, cells were treated with compound in an 11-point dilution series with final concentrations ranging from 100 μM to 2 nM. Cells were then incubated in the presence of compound for 168 hours. After compound incubation the cells were assayed using a BrdU Cell Proliferation ELISA (Roche). The cells were first incubated with BrdU labeling reagent for 2 hours. After 2 hours, the BrdU incorporated cells were fixed and denatured, probed with an anti-BrdU-Peroxidase antibody for 1.5 hours and washed. Finally, a tetramethylbenzidine peroxidase substrate was added to each well for 15 minutes followed by a H2SO4 stop solution. The plate was read at 450 nm, and the raw optical density data was transferred into XLFit (IDBS) for IC50 calculation using the formula: fit=(D+((Vmax*(x^n))/((x^n)+(Km^n))))

| IC50 | Compound |
| --- | --- |
| ≤ 100 nM | C[C@@H](O)c1ccc(N(C)c2ccc3c(c2)CCC[C@H]3CNc2cnccc2C(=O)O)cc1 (single isomer, unassigned) [Example 168] |
| ≤ 100 nM | C[C@H](O)c1ccc(N(C)c2ccc3c(c2)CCC[C@H]3CNc2cnccc2C(=O)O)cc1 (single isomer, unassigned) [Example 169] |
| 1000 to 10000 nM | O=C(O)c1ccncc1NC[C@@H]1CCOc2cc(C3CCCCC3)ccc21 [Example 35, 3-({[(4R)-7-cyclohexyl-3,4-dihydro-2H-1-benzopyran-4-yl]methyl}amino)pyridine-4-carboxylic acid] |

Same assay, conditions: KYSE-150, 168 hours compound incubation

| Compound | IC50 |
| --- | --- |
| 3-({[(1R)-6-[cyclopentyl(methyl)amino]-1,2,3,4-tetrahydronaphthalen-1-yl]methyl}amino)pyridine-4-carboxylic acid [Example 133] | 1000 to 10000 nM |
| 3-({[(1R)-6-[methyl(2-methyl-1,3-thiazol-4-yl)amino]-1,2,3,4-tetrahydronaphthalen-1-yl]methyl}amino)pyridine-4-carboxylic acid [Example 139] | ≤ 100 nM |
